The source of these data is patent US6303797A, “Sesterterpene derivatives exhibiting antifungal activities” (Banyu Pharmaceutical Co., Ltd., priority 1998, dated 2001).

Values after ≈ are worked out from the molar mass of the structure shown.

For one assay, the system named is Trichosporon cutaneum IFO 1189. The assay can be described thus: Antifungal activity, minimum growth inhibition concentration (MIC), agar plate dilution method. The format is cell-based. Conditions: Cutaneotrichosporon cutaneum, IFO1189, 48 h; agar plate dilution method, Trichosporon cutaneum IFO 1189, culture at 37° C. for 2 days, yeast-nitrogen base with 1% glucose.
For the molecule `C=C1C2CC3C(C(C)C)C(OC(=O)CCC)CC3(C)CC2C(C)=CCC2C(C)OC(=O)C(O)C12O` (stereo not shown) [Compound 5, 1,13a-dihydroxy-11-isopropyl-4,7,8a-trimethyl-13-methylene-2-oxo-1,2,4,4a,5,7a,8,8a,9,10,11,11a,12,12a,13,13a-hexadecahydroindeno[5',6':4,5]cycloocta[1,2-c]pyran-10-yl butanoate], inhibition of growth (MIC) required 6.25 µg/mL (≈ 12.8 µM). With `C=C1C2CC3C(C(C)C)C(OC(=O)CC(C)C)CC3(C)CC2C(C)=CCC2C(C)OC(=O)C(O)C12O` (stereo not shown) [Compound 9, 1,13a-dihydroxy-11-isopropyl-4,7,8a-trimethyl-13-methylene-2-oxo-1,2,4,4a,5,7a,8,8a,9,10,11,11a,12,12a,13,13a-hexadecahydroindeno[5',6':4,5]cycloocta[1,2-c]pyran-10-yl 3-methylbutanoate], the minimum inhibitory concentration (MIC) (in general, the lowest concentration that inhibits growth of the organism) was determined as 6.25 µg/mL (≈ 12.4 µM). Turning to `C=C1C2CC3C(C(C)C)C(OC(=O)C(O)CCCC)CC3(C)CC2C(C)=CCC2C(C)OC(=O)C(O)C12O` (stereo not shown) [Compound 14, 1,13a-dihydroxy-11-isopropyl-4,7,8a-trimethyl-13-methylene-2-oxo-1,2,4,4a,5,7a,8,8a,9,10,11,11a,12,12a,13,13a-hexadecahydroindeno[5',6':4,5]cycloocta[1,2-c]pyran-10-yl 2-hydroxyhexanoate], the MIC is 12.5 µg/mL (≈ 23.5 µM).

The molecule `C=C1C2CC3C(C(C)C)C(OC(=O)c4ccc(F)cc4)CC3(C)CC2C(C)=CCC2C(C)OC(=O)C(O)C12O` (stereo not shown) [Compound 23, 1,13a-dihydroxy-11-isopropyl-4,7,8a-trimethyl-13-methylene-2-oxo-1,2,4,4a,5,7a,8,8a,9,10,11,11a,12,12a,13,13a-hexadecahydroindeno[5',6':4,5]cycloocta[1,2-c]pyran-10-yl 4-fluorobenzoate] had an MIC of 12.5 µg/mL (≈ 23.1 µM). In turn, `C=C1C2CC3C(C(C)C)C(OC(=O)c4ccc(Cl)nc4)CC3(C)CC2C(C)=CCC2C(C)OC(=O)C(O)C12O` (stereo not shown) [Compound 26, 1,13a-dihydroxy-11-isopropyl-4,7,8a-trimethyl-13-methylene-2-oxo-1,2,4,4a,5,7a,8,8a,9,10,11,11a,12,12a,13,13a-hexadecahydroindeno[5',6':4,5]cycloocta[1,2-c]pyran-10-yl 6-chloronicotinate] displayed an MIC of 3.13 µg/mL (≈ 5.61 µM). `C=C1C2CC3C(C(C)C)C(OS(=O)(=O)/C=C/c4ccccc4)CC3(C)CC2C(C)=CCC2C(C)OC(=O)C(O)C12O` (stereo not shown) [Compound 31, 1,13a-dihydroxy-11-isopropyl-4,7,8a-trimethyl-13-methylene-2-oxo-1,2,4,4a,5,7a,8,8a,9,10,11,11a,12,12a,13,13a-hexadecahydroindeno[5',6':4,5]cycloocta[1,2-c]pyran-10-yl (E)-2-phenyl-1-ethene-1sulfonate] displayed an MIC of 12.5 µg/mL (≈ 21.4 µM). Turning to `C=C1C2CC3C(C(C)C)C(OS(=O)(=O)CCCC)CC3(C)CC2C(C)=CCC2C(C)OC(=O)C(O)C12O` (stereo not shown) [Compound 32, 1,13a-dihydroxy-11-isopropyl-4,7,8a-trimethyl-13-methylene-2-oxo-1,2,4,4a,5,7a,8,8a,9,10,11,11a,12,12a,13,13a-hexadecahydroindeno[5',6':4,5]cycloocta[1,2-c]pyran-10-yl 1butanesulfonate], the MIC was found to be 6.25 µg/mL.

`C=C1C2CC3C(C(C)C)C(OC(=O)NCC)CC3(C)CC2C(C)=CCC2C(C)OC(=O)C(O)C12O` (stereo not shown) [Compound 33, 1,13a-dihydroxy-11-isopropyl-4,7,8a-trimethyl-13-methylene-2-oxo-1,2,4,4a,5,7a,8,8a,9,10,11,11a,12,12a,13,13a-hexadecahydroindeno[5',6':4,5]cycloocta[1,2-c]pyran-10-yl N-ethylcarbamate]: the MIC was 6.25 µg/mL (≈ 12.8 µM). For `C=C1C2CC3C(C(C)C)C(OC(=O)Nc4ccc(F)cc4)CC3(C)CC2C(C)=CCC2C(C)OC(=O)C(O)C12O` (stereo not shown) [Compound 39, 1,13a-dihydroxy-11-isopropyl-4,7,8a-trimethyl-13-methylene-2-oxo-1,2,4,4a,5,7a,8,8a,9,10,11,11a,12,12a,13,13a-hexadecahydroindeno[5',6':4,5]cycloocta[1,2-c]pyran-10-yl N-(4-fluorophenyl)carbamate], inhibition of growth (MIC) required 3.13 µg/mL (≈ 5.63 µM). `C=C1C2CC3C(C(C)C)C(OC(=O)NCc4ccccc4)CC3(C)CC2C(C)=CCC2C(C)OC(=O)C(O)C12O` (stereo not shown) [Compound 40, 1,13a-dihydroxy-11-isopropyl-4,7,8a-trimethyl-13-methylene-2-oxo-1,2,4,4a,5,7a,8,8a,9,10,11,11a,12,12a,13,13a-hexadecahydroindeno[5',6':4,5]cycloocta[1,2-c]pyran-10-yl N-benzylcarbamate] registered an MIC of 6.25 µg/mL (≈ 11.3 µM).

In turn, `C=C1C2CC3C(C(C)C)C(OC(=O)NC4CCCCO4)CC3(C)CC2C(C)=CCC2C(C)OC(=O)C(O)C12O` (stereo not shown) [Compound 42, 1,13a-dihydroxy-11-isopropyl-4,7,8a-trimethyl-13-methylene-2-oxo-1,2,4,4a,5,7a,8,8a,9,10,11,11a,12,12a,13,13a-hexadecahydroindeno[5',6':4,5]cycloocta[1,2-c]pyran-10-yl N-tetrahydro-2H-pyran-2-ylcarbamate] gave an MIC of 12.5 µg/mL (≈ 22.9 µM). With `C=C1C2CC3C(C(C)C)C(OC(=O)Nc4ccccc4)CC3(C)CC2C(C)=CCC2C(C)OC(=O)C(O)C12O` (stereo not shown) [Compound 43, 1,13a-dihydroxy-11-isopropyl-4,7,8a-trimethyl-13-methylene-2-oxo-1,2,4,4a,5,7a,8,8a,9,11a,12,12a,13,13a-hexadecahydroindeno[5',6':4,5]cycloocta [1,2-c]pyran-10-yl N-phenylcarbamate], it took 3.13 µg/mL (≈ 5.82 µM) to inhibit growth (MIC). Molecule `C=C1C2CC3C(C(C)C)C(OC(=O)NC4CCCCC4)CC3(C)CC2C(C)=CCC2C(C)OC(=O)C(O)C12O` (stereo not shown) [Compound 46, 1,13a-dihydroxy-11-isopropyl-4,7,8a-trimethyl-13-methylene-2-oxo-1,2,4,4a,5,7a,8,8a,9,10,11,11a,12,12a,13,13a-hexadecahydroindeno[5',6':4,5]cycloocta[1,2-c]pyran-10-yl N-cyclohexylcarbamate] gave an MIC of 12.5 µg/mL (≈ 23 µM). For `C=C1C2CC3C(C(C)C)C(NC(=O)CC(C)(O)CC(C)CC)CC3(C)CC2C(C)=CCC2C(C)OC(=O)C(O)C12O` (stereo not shown) [Compound 54, N'-(1,13a-dihydroxy-11-isopropyl-4,7,8a-trimethyl-13-methylene-2-oxo-1,2,4,4a,5,7a,8,8a,9,10,11,11a,12,12a,13,13a-hexadecahydroindeno[5',6': 4,5]cycloocta [1,2-c]pyran-10-yl)-3-hydroxy-3,5-dimethylheptanamide], the MIC turned out to be 12.5 µg/mL (≈ 21.8 µM). The same measure, in the same setting: the figure for `C=C1C2CC3C(C(C)C)C(NC(=O)Cc4csc5ccccc45)CC3(C)CC2C(C)=CCC2C(C)OC(=O)C(O)C12O` (stereo not shown) [Compound 64, N'-(1,13a-dihydroxy-11-isopropyl-4,7,8a-trimethyl-13-methylene-2-oxo-1,2,4,4a,5,7a,8,8a,9,10,11,11a,12,12a,13,13a-hexadecahydroindeno[5',6': 4,5]cycloocta[1,2-c]pyran-10-yl)-3-benzo[b]thienylacetamide] is 6.25 µg/mL (≈ 10.6 µM). The same measure, in the same setting: the figure for `C=C1C2CC3C(C(C)C)C(NC(=O)Cc4ccc(Cl)cc4)CC3(C)CC2C(C)=CCC2C(C)OC(=O)C(O)C12O` (stereo not shown) [Compound 65, N'-(1,13a-dihydroxy-11-isopropyl-4,7,8a-trimethyl-13-methylene-2-oxo-1,2,4,4a,5,7a,8,8a,9,10,11,11a,12,12a,13,13a-hexadecahydroindeno[5',6': 4,5]cycloocta[1,2-c]pyran-10-yl)-4-chlorophenylacetamide] is 6.25 µg/mL (≈ 11 µM); for `C[C@@H]1[C@H](O)[C@@H](C)/C=C/C=C/C=C/C=C/C=C/C=C/C=C/[C@H](O[C@@H]2O[C@H](C)[C@@H](O)[C@H](N)[C@@H]2O)C[C@@H]2O[C@](O)(C[C@@H](O)C[C@@H](O)[C@H](O)CC[C@@H](O)C[C@@H](O)CC(=O)O[C@H]1C)C[C@H](O)[C@H]2C(=O)O` [amphotericin B, reference compound] it is at least 100 µg/mL.

Staying with this assay, now noted: agar plate dilution method, Trichosporon cutaneum IFO 1189, culture at 37° C. for 2 days, yeast-nitrogen base with 1% glucose.
On to `C=C1C2CC3C(C(C)C)C(OC(=O)CC(C)(O)CC(C)CC)CC3(C)CC2C(C)=CCC2C(C)OC(=O)C(O)C12O` (stereo not shown) [BE-49385 A, reference compound], for which the “MIC (minimum growth inhibition concentration)” value is at least 100 µg/mL.

Still in this assay, the particulars now being: fungi against which BE-49385 A does not show an antifungal activity.
Consider `C=C1C2CC3C(C(C)C)C(OC(=O)CC(C)(O)CC(C)CC)CC3(C)CC2C(C)=CCC2C(C)OC(=O)C(O)C12O` (stereo not shown) [BE-49385 A, reference compound], for which the “antifungal activity (in words)” value was “does not show an antifungal activity”.
